Assay results published in PubChem BioAssay (NCI).
“And” between values parts separate entries of the source, which are not always exact repeats. Identical values can stand only once.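 Cultured in 96-well plates, cells were exposed to test compound for 48 hours across five concentrations. Here, GI50 denotes the concentration required for 50% inhibition of growth. TGI: total growth inhibition.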

How the values were obtained:
Assay in all cases: NCI-60 cell line screen, 48 h
UACC-257 melanoma = system: UACC-257 melanoma
SF-295 CNS = system: SF-295 CNS
SNB-19 CNS = system: SNB-19 CNS
NCI-H23 lung = system: NCI-H23 lung
UO-31 renal = system: UO-31 renal
SN12C renal = system: SN12C renal
HCT-15 colon = system: HCT-15 colon
CAKI-1 renal = system: CAKI-1 renal
NCI-H522 lung = system: NCI-H522 lung
OVCAR-4 ovarian = system: OVCAR-4 ovarian

Row | Structure (SMILES) | GI50 (UACC-257 melanoma) [µM] | TGI (UACC-257 melanoma) [µM] | GI50 (SF-295 CNS) [µM] | TGI (SF-295 CNS) [µM] | GI50 (SNB-19 CNS) | TGI (SNB-19 CNS) | GI50 (NCI-H23 lung) [µM] | TGI (NCI-H23 lung) [µM] | GI50 (UO-31 renal) [µM] | TGI (UO-31 renal) [µM] | GI50 (SN12C renal) [µM] | TGI (SN12C renal) [µM] | GI50 (HCT-15 colon) [µM] | TGI (HCT-15 colon) [µM] | GI50 (CAKI-1 renal) [µM] | TGI (CAKI-1 renal) [µM] | GI50 (NCI-H522 lung) [µM] | TGI (NCI-H522 lung) [µM] | GI50 (OVCAR-4 ovarian) | TGI (OVCAR-4 ovarian)
1 | O=C(Nc1ccc(Cl)c(Cl)c1)Nc1ccccc1O | 6.6 | 25 | 3.06 | 11.3 | 9.92 µM | 44.3 µM | 2.98 | 16.1 | 2.48 | 18.4 | 8.4 | 25.1 | 4.46 | 23.9 | 3.72 | 20.4 | 2.65 | 15.5 | 5.44 µM | > 100 µM
2 | C[C@H]1CCC/C=C/[C@@H]2C[C@H](O)C[C@H]2[C@H](O)[C@@H](SCC(O)CO)CC(=O)O1 (stereo not given in full) | 6.74 | > 100 | 43.8 | > 100 | 27.1 µM | 70.9 µM | 17.8 | 60.5 | 21.4 | 71 | 34.3 | > 100 | 18.9 | 46.2 | 31.7 | 67.6 | 95.6 | > 100 | 4.17 µM | > 100 µM
3 | C=CCn1c2c(sc1=S)C(S)N=CN2 (stereo not given) | – | > 100 | – | > 100 | – | > 100 µM | – | > 100 | – | > 100 | – | > 100 | – | > 100 | – | > 100 | – | > 100 | – | > 100 µM
4 | O=C(O)CSc1n[nH]c(Cc2ccccc2)n1 | – | > 100 | – | > 100 | – | > 100 µM | – | > 100 | – | > 100 | – | > 100 | – | > 100 | – | > 100 | – | > 100 | – | > 100 µM
5 | CC1=C(C(=O)NNS(=O)(=O)c2ccc(C)cc2)CC(C(=O)NNS(=O)(=O)c2ccc(C)cc2)=C(C)N1 | – | > 100 | – | > 100 | – | > 100 µM | – | > 100 | – | > 100 | – | > 100 | – | > 100 | – | > 100 | – | > 100 | – | > 100 µM
6 | CCOc1ccccc1NC(=O)C(=O)Cc1nc2ccccc2s1 | – | > 100 | – | > 100 | – | > 100 µM | – | > 100 | – | > 100 | – | > 100 | – | > 100 | – | > 100 | – | > 100 | – | > 100 µM
7 | CCCCCCCCCCCCOC1C(C(CC(=O)NCCN2CCCC2)NS(=O)(=O)c2cc(Cl)cc(Cl)c2)OC2OC(C)(C)OC21 (stereo not given) | 2.04 | 4.84 | 1.9 | 4.69 | 2.2 µM and 1.37 µM | 4.36 µM and 2.81 µM | 2.21 | 4.76 | 1.9 | 3.44 | 1.76 | 3.23 | 1.71 | 3.18 | 1.79 | 3.4 | 2.11 | 3.98 | 2 µM and 1.7 µM | 3.7 µM and 3.51 µM
8 | O=C1C(=O)N(c2cc(Cl)ccc2Cl)C(=O)C(=O)C1c1nc2ccccc2o1 | – | > 100 | – | > 100 | – | > 100 µM | – | > 100 | – | > 100 | – | > 100 | – | > 100 | – | > 100 | – | > 100 | – | > 100 µM
9 | CC(O)CC(O)(C(F)(F)F)C(F)(F)F (stereo not given) | – | > 10 | – | > 10 | – | > 10 µM | – | > 10 | – | > 10 | – | > 10 | – | > 10 | – | > 10 | – | > 10 | – | > 10 µM
10 | N.N.NCCCCCCCCCN.O=C([O-])CC(=O)[O-].O=C([O-])CC(=O)[O-].[Pt+4].[Pt+4] | > 100 | > 100 | > 100 | > 100 | > 100 µM | > 100 µM | > 100 | > 100 | > 100 | > 100 | 67.5 | > 100 | > 100 | > 100 | 22.3 | 91.1 | 67.5 | > 100 | > 100 µM | > 100 µM
11 | CCN(CC)CCNc1ccc2ncn3c4cc(OC)c(OC)c(=O)c4c(O)c1c23 | – | 44.2 | – | 23.6 | – | 22.6 µM | – | 26.3 | – | 25.7 | – | 21.5 | – | 24.7 | – | 28.9 | – | 25.9 | – | 24.4 µM
